Assay results reported in patent US7915416B2, “Tetrahydroquinolines” (Merck Patent GmbH, priority 2004, dated 2011).

System: cells
Experiment: cell cycle experiments (G2/M)
Type: cell-based

## N=C(N)c1ccc(OCCCCCOc2ccc(C(=N)N)cc2)cc1 [pentamidine]
  effect on cell cycle: maintain cells in the G2/M cell cycle
